# Experimental data taken from patent publication US4387106A, “Method of treating atherosclerosis with di(aralkyl)ureas and di(aralkyl)thioureas” (American Cyanamid Company, priority 1982, dated 1983).
# Assays:
# [1] = biological target: T1, fatty acyl CoA:cholesterol acyl transferase (ACAT) (Rattus norvegicus, UniProt O70536); assay: In vitro inhibition of fatty acyl CoA:cholesterol acyl transferase (ACAT), rat adrenal supernatant; assay type: biochemical; conditions: pH 7.4, 37° C., oleoyl CoA (14C)
# T1 construct: The supernatant, containing the microsomal fraction, served as the source of the cholesterol-esterifying enzyme; from tissue; host or cells: rat adrenals, homogenate, 1000 x g supernatant containing the microsomal fraction
# T1 sequence (O70536 1-545): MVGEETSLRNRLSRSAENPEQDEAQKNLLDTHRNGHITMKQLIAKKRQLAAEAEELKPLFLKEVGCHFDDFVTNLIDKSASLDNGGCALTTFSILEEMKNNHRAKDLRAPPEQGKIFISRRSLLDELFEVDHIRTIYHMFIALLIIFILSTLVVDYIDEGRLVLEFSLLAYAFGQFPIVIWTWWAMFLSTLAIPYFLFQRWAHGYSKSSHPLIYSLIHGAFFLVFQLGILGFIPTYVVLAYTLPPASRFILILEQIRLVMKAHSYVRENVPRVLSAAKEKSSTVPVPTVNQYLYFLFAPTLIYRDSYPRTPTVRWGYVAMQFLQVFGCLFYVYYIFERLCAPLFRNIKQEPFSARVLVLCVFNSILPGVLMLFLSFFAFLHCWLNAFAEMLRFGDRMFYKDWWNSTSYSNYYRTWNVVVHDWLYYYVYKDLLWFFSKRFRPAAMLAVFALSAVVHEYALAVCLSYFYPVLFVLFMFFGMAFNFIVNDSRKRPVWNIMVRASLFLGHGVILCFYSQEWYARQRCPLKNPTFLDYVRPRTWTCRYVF
# Protocol: The compounds were tested for their ability to inhibit ACAT according to the following procedure:
# Rat adrenals were homogenized in 0.2 M monobasic potassium phosphate buffer, pH 7.4, and centrifuged at 1000 times gravity for 15 minutes at 5° C. The supernatant, containing the microsomal fraction, served as the source of the cholesterol-esterifying enzyme, fatty acyl CoA:cholesterol acyl transferase (ACAT). A mixture comprising 50 parts of adrenal supernatant, 10 parts of albumin (BSA) (50 mg./ml.), 3 parts of test compound (final concentration 5.2 μg./ml.) and 500 parts of buffer was preincubated at 37° C. for 10 minutes. After treatment with 20 parts of oleoyl CoA (^14 C--0.4 μCi) the mixture was incubated at 37° C. for 10 minutes. A control mixture, omitting the test compound, was prepared and treated in the same manner. The lipids from the incubation mixture were extracted into an organic solvent and separated by thin-layer chromatography. The cholesteryl ester fraction was counted in a scintillation counter.
# Cholesterol absorption = conditions: po, 0.03 % of diet, 336 h
# Protocol: Compounds were tested in vitro for their ability to inhibit the enzyme fatty acyl CoA:cholesterol acyl transferase (ACAT) and in vivo for serum hypolipidemic activity as measured by their ability to inhibit lipid absorption in rats.
# Inhibition of Cholesterol absorption was determined by feeding male Sprague-Dawley rats, weighing 150-170 g., A 1% cholesterol:0.5% cholic acid diet for 2 weeks. The diet also contained compounds being tested at a dose of 0.03% of the diet. Control rats were fed the same diet without any compound. At the end of the test, the rats were sacrificed by decapitation. Blood is collected, centrifuged at 1.5 kg times gravity for 10 minutes at 4° C., and the serum is then analyzed for cholesterol and triglycerides enzymatically by the method of Trinder, P., Analyst, 77, 321 (1952) on a Centrifichem 400 Analyzer. Livers are removed, a 0.4 g sample is taken from the center of the large lobe, and the sample is subjected to saponification using 25% saturated potassium hydroxide in ethanol. The resulting neutral sterols are extracted with petroleum ether and extract analyzed for cholesterol. The effectiveness of the compound in inhibiting cholesterol absorption is measured by the lowering of either serum cholesterol or liver cholesterol relative the values for control rats.
# [2] = final concentration 5.2 μg./ml.
# [3] = pH 7.4, final concentration 5.2 μg./ml.
"inhibition at 5.2 µg/mL [1, 2] [%]",SMILES,Result (inhibition of cholesterol absorption: lowering of serum or liver cholesterol relative to control) (Cholesterol absorption),"inhibition at 5.2 µg/mL [1, 3] [%]"
90,"O=C(Nc1cccc2ccccc12)N(Cc1ccccc1)Cc1ccccc1 [1,1-Dibenzyl-3-(2,3-dibenzophenyl)urea]",–,–
79.7,"O=C(Nc1cccc(Cl)c1Cl)N(Cc1ccccc1)Cc1ccccc1 [1,1-Dibenzyl-3-(2,3-dichlorophenyl)urea]",–,–
69.1,"Cc1cc(C)c(NC(=O)N(Cc2ccccc2)Cc2ccccc2)cc1C [1,1-Dibenzyl-3-(2,4,5-trimethylphenyl)urea]",Active,–
81.9,"O=C(Nc1ccc(Br)cc1Br)N(Cc1ccccc1)Cc1ccccc1 [1,1-Dibenzyl-3-(2,4-dibromophenyl)urea]",–,–
83.3,"O=C(Nc1ccc(Cl)cc1Cl)N(Cc1ccccc1)Cc1ccccc1 [1,1-Dibenzyl-3-(2,4-dichlorophenyl)urea]",Active,–
78.7,"Cc1ccc(NC(=S)N(Cc2ccccc2)Cc2ccccc2)c(C)c1 [1,1-Dibenzyl-3-(2,4-dimethylphenyl)thiourea]",Active,–
82.4,"O=C(Nc1cc(Cl)ccc1Cl)N(Cc1ccccc1)Cc1ccccc1 [1,1-Dibenzyl-3-(2,5-dichlorophenyl)urea]",–,–
72,"O=C(Nc1cc(F)ccc1F)N(Cc1ccccc1)Cc1ccccc1 [1,1-Dibenzyl-3-(2,5-difluorophenyl)urea]",–,–
87.9,"COc1ccc(OC)c(NC(=O)N(Cc2ccccc2)Cc2ccccc2)c1 [1,1-Dibenzyl-3-(2,5-dimethoxyphenyl)urea]",–,–
89.1,"Cc1ccc(C)c(NC(=O)N(Cc2ccccc2)Cc2ccccc2)c1 [1,1-Dibenzyl-3-(2,5-dimethylphenyl)urea]",–,–
88.6,"O=C(Nc1c(Cl)cccc1Cl)N(Cc1ccccc1)Cc1ccccc1 [1,1-Dibenzyl-3-(2,6-dichlorophenyl)urea]",–,–
72,"CCc1cccc(CC)c1NC(=O)N(Cc1ccccc1)Cc1ccccc1 [1,1-Dibenzyl-3-(2,6-diethylphenyl)urea]",–,–
56.1,"Cc1cccc(C)c1NC(=O)N(Cc1ccccc1)Cc1ccccc1 [1,1-Dibenzyl-3-(2,6-dimethylphenyl)urea]",–,–
59.1,"CC(C)c1cccc(C(C)C)c1NC(=O)N(Cc1ccccc1)Cc1ccccc1 [1,1-Dibenzyl-3-(2,6-isopropylphenyl)urea, 1,1-Dibenzyl-3-(2,6-diisopropylphenyl)urea]",–,–
93.9,"O=C(Nc1ccccc1Br)N(Cc1ccccc1)Cc1ccccc1 [1,1-Dibenzyl-3-(2-bromophenyl)urea]",–,–
87.8,"O=C(Nc1ccccc1Cl)N(Cc1ccccc1)Cc1ccccc1 [1,1-Dibenzyl-3-(2-chlorophenyl)urea]",–,–
91,"COc1ccccc1NC(=O)N(Cc1ccccc1)Cc1ccccc1 [1,1-Dibenzyl-3-(2-methoxyphenyl)urea]",–,–
77,"Cc1ccccc1NC(=O)N(Cc1ccccc1)Cc1ccccc1 [1,1-Dibenzyl-3-(2-methylphenyl)urea]",–,–
–,"O=C(Nc1ccc2ccccc2c1)N(Cc1ccccc1)Cc1ccccc1 [1,1-Dibenzyl-3-(3,4-dibenzophenyl)urea]",–,97.3
94.5,"O=C(Nc1ccc(Cl)c(Cl)c1)N(Cc1ccccc1)Cc1ccccc1 [1,1-Dibenzyl-3-(3,4-dichlorophenyl)urea]",–,–
86.1,"O=C(Nc1cc(Cl)cc(Cl)c1)N(Cc1ccccc1)Cc1ccccc1 [1,1-Dibenzyl-3-(3,5-dichlorophenyl)urea]",–,–
90.2,"Cc1cc(C)cc(NC(=O)N(Cc2ccccc2)Cc2ccccc2)c1 [1,1-Dibenzyl-3-(3,5-dimethylphenyl)urea]",–,–

"inhibition at 5.2 µg/mL [1, 2] [%]",SMILES,Result (inhibition of cholesterol absorption: lowering of serum or liver cholesterol relative to control) (Cholesterol absorption),"inhibition at 5.2 µg/mL [1, 3] [%]"
80.7,"CC(=O)c1cccc(NC(=O)N(Cc2ccccc2)Cc2ccccc2)c1 [1,1-Dibenzyl-3-(3-acetylphenyl)urea]",–,–
83.8,"Cc1c(Cl)cccc1NC(=O)N(Cc1ccccc1)Cc1ccccc1 [1,1-Dibenzyl-3-(3-chloro-2-methylphenyl)urea]",–,–
94.2,"O=C(Nc1cccc(Cl)c1)N(Cc1ccccc1)Cc1ccccc1 [1,1-Dibenzyl-3-(3-chlorophenyl)urea]",–,–
87,"COc1cccc(NC(=O)N(Cc2ccccc2)Cc2ccccc2)c1 [1,1-Dibenzyl-3-(3-methoxyphenyl)urea]",–,–
88.9,"Cc1cccc(NC(=O)N(Cc2ccccc2)Cc2ccccc2)c1 [1,1-Dibenzyl-3-(3-methylphenyl)urea]",–,–
81.3,"O=C(Nc1cccc([N+](=O)[O-])c1)N(Cc1ccccc1)Cc1ccccc1 [1,1-Dibenzyl-3-(3-nitrophenyl)urea]",–,–
88.6,"FC(F)(F)c1cccc(NC(=S)N(Cc2ccccc2)Cc2ccccc2)c1 [1,1-Dibenzyl-3-(3-trifluoromethylphenyl)thiourea]",–,–
94.2,"O=C(Nc1cccc(C(F)(F)F)c1)N(Cc1ccccc1)Cc1ccccc1 [1,1-Dibenzyl-3-(3-trifluoromethylphenyl)urea]",–,–
79.9,"O=C(Nc1ccc(Br)cc1)N(Cc1ccccc1)Cc1ccccc1 [1,1-Dibenzyl-3-(4-bromophenyl)urea]",–,–
76.6,"CCOC(=O)c1ccc(NC(=S)N(Cc2ccccc2)Cc2ccccc2)cc1 [1,1-Dibenzyl-3-(4-carboethoxyphenyl)thiourea]",–,–
14.1,"O=C(O)c1ccc(NC(=O)N(Cc2ccccc2)Cc2ccccc2)cc1 [1,1-Dibenzyl-3-(4-carboxyphenyl)urea]",–,–
92,"O=C(Nc1ccc(Cl)c(C(F)(F)F)c1)N(Cc1ccccc1)Cc1ccccc1 [1,1-Dibenzyl-3-(4-chloro-3-trifluoromethylphenyl)urea]",–,–
77.5,"O=C(Nc1ccc(Cl)cc1)N(Cc1ccccc1)Cc1ccccc1 [1,1-Dibenzyl-3-(4-chlorophenyl)urea]",–,–
95.8,"CCOc1ccc(NC(=O)N(Cc2ccccc2)Cc2ccccc2)cc1 [1,1-Dibenzyl-3-(4-ethoxyphenyl)urea]",–,–
85.2,"O=C(Nc1ccc(I)cc1)N(Cc1ccccc1)Cc1ccccc1 [1,1-Dibenzyl-3-(4-iodophenyl)urea]",–,–
71.6,"COc1ccc(NC(=O)N(Cc2ccccc2)Cc2ccccc2)cc1 [1,1-Dibenzyl-3-(4-methoxyphenyl)urea]",–,–
67.1,"CSc1ccc(NC(=O)N(Cc2ccccc2)Cc2ccccc2)cc1 [1,1-Dibenzyl-3-(4-methylthiophenyl)urea]",–,–
52.2,"O=C(Nc1ccc([N+](=O)[O-])cc1)N(Cc1ccccc1)Cc1ccccc1 [1,1-Dibenzyl-3-(4-nitrophenyl)urea]",–,–
83.9,"Cc1cccc(Cl)c1NC(=O)N(Cc1ccccc1)Cc1ccccc1 [1,1-Dibenzyl-3-(6-chloro-2-methylphenyl)urea]",–,–
73.6,"CCc1cccc(C)c1NC(=O)N(Cc1ccccc1)Cc1ccccc1 [1,1-Dibenzyl-3-(6-ethyl-2-methylphenyl)urea]",–,–
90.4,"O=C(Nc1ccccc1)N(Cc1ccccc1)Cc1ccccc1 [1,1-Dibenzyl-3-phenylurea, 1,1-Dibenzyl-3-phenyl urea]",–,–

SMILES,"inhibition at 5.2 µg/mL [1, 2] [%]",Result (inhibition of cholesterol absorption: lowering of serum or liver cholesterol relative to control) (Cholesterol absorption),"inhibition at 5.2 µg/mL [1, 3] [%]"
"Cc1ccc(NC(=O)N(Cc2ccccc2)Cc2ccccc2)cc1 [1,1-Dibenzyl-3-(4-methylphenyl)urea]",89.8,–,86.5
"CCCCOc1ccc(NC(=O)N(Cc2ccccc2)Cc2ccccc2)cc1 [1,1-Dibenzyl-3-(4-n-butoxyphenyl)urea]",90.2,–,–
